Test results from US4434162A, “Phosphonic acid ester, pharmaceutical compositions containing the same and method of using the same” (Kanebo, Ltd., priority 1982, dated 1984).
“Also recorded” adds a separate entry of the source.

How the values were obtained:
dogs = experiment: Increase in coronary blood flow upon intravenous administration into dogs; assay type: in vivo, dog; details: for Increase in coronary blood flow (Δ% ± standard error): anaesthetized dogs, intravenous (femoral vein), dose 0.1 mg/kg, circumflex branch of left coronary; for activity in increasing coronary blood flow (in words): comparison with other esters
Description: (b) Intravenous administration into dogs.
Increase in coronary blood flow upon intravenous administration of a test compound into dogs was tested. Compounds tested were 4-(benzothiazol-2-yl)benzylphosphonic acid ethyl isopropyl ester and, as a control, diltiazem, 4-(benzothiazol-2-yl)benzylphosphonic acid diethyl ester and 2-(benzothiazol-2-yl)-5-picolinylphosphonic acid diethyl ester.
Dogs weighing 10 to 13 kg were anaesthetized with pentobarbital sodium (35 mg/kg, intraperitoneal) and, under supportive respiration, a thoractomy was performed by removing the fourth left rib. The pericardial membrane was then incised to expose the heart. The test compound was dissolved in 50% aqueous ethanol and injected into the femoral vein. The blood flow through circumflex branch of left coronary was measured before and after the administration of drugs with an electromagnetic flowmeter (Nihon Kohden, MF-26).

[1] = Acute toxicity test in mice; details: mouse, in vivo, ip; male ddY mice, intraperitoneal; deaths within 72 hours, method of Weil
Description: (§1) An acute toxicity test was carried out in male ddY mice (in groups of 5 animals, body weights 20.congruent.2 g) by the intraperitoneal administration of a test compound. The LD50 values were calculated by the method of Weil based on the number of deaths within 72 hours.

male ddY mice = experiment: Acute toxicity test in mice; details: mouse, in vivo; listed as compound of the invention
Description: as §1

[2] = tested on: isolated guinea pig heart; experiment: Action on coronary flow of the isolated guinea pig heart (Langendorff); details: Cavia porcellus, 100 γ/ml in propylene glycol, 0.1 ml infused at 0.1 ml/min, read-out: Increase in coronary flow (Δ% ± standard error)
Description: (a) Action on the isolated guinea pig heart.
Male guinea-pigs with body weights from 400 to 500 g were slaughtered and promptly thoractomized. After the ascending aorta was cannulated, the heart was enucleated. By the method of Langendorff, this isolated heart was perfused with the Krebs-Henseleit fluid oxygenated with a gaseous mixture of 95% O2 and 5% CO2 at the fluid temperature of 34±1° C. and the perfusion pressure of 60 cm H2 O, and the test compound was infused. The coronary flows before and after infusion were measured and the percent gain in coronary flow was obtained. The coronary flow was measured with a square-wave electromagnetic flowmeter (Nihon Kohden, MF-26) with an extracorporeal probe (Nihon Kohden, FE) set at the top of the cannula and recorded with a multipurpose polygraph (Nihon Kohden, RM-85). The test compound was dissolved in propylene glycol to a concentration of 100 γ/ml and 0.1 ml of the solution was infused at the rate of 0.1 ml/min. For reference, the corresponding data on diltiazem is also shown.

CCOP(=O)(Cc1ccc(-c2nc3ccccc3s2)cc1)OC(C)C (centres unmarked) [4-(benzothiazol-2-yl)benzylphosphonic acid isopropyl ethyl ester]
Increase in coronary blood flow (Δ% ± standard error) (dogs): 75.3 ± 2.9 Δ% | activity in increasing coronary blood flow (in words) (dogs; listed as asymmetric type ester of the invention): high activity in increasing coronary blood flow in comparison with other asymmetric and cyclic esters of this type | activity in increasing coronary blood flow (in words) (dogs; listed as compound of the invention): somewhat lower in its activity of increasing coronary blood flow than the corresponding diethyl ester compound | LD50 at 72 h [1]: 1790 mg/kg | acute toxicity (in words) (male ddY mice): low acute toxicity; also recorded: lower acute toxicity than such compound | activation at 100 µg/mL, 0.01 mg [2]: 76.9 ± 24.4%

CCOP(=O)(Cc1ccc(-c2nc3ccccc3s2)nc1)OCC [2-(benzothiazol-2-yl)-5-picolinylphosphonic acid diethyl ester, reference compound]
Increase in coronary blood flow (Δ% ± standard error) (dogs): 83.0 ± 12.3 Δ%

COc1ccc([C@@H]2Sc3ccccc3N(CCN(C)C)C(=O)[C@@H]2OC(C)=O)cc1 [Diltiazem, diltiazem, reference compound]
Increase in coronary blood flow (Δ% ± standard error) (dogs): 105.6 ± 14.1 Δ% | LD50 at 72 h [1]: 177 mg/kg | activation at 100 µg/mL, 0.01 mg [2]: 66 ± 7.1%

CCOP(=O)(Cc1ccc(-c2nc3ccccc3s2)cc1)OCC [4-(benzothiazol-2-yl)benzylphosphonic acid diethyl ester, reference compound]
Increase in coronary blood flow (Δ% ± standard error) (dogs): 82.2 ± 5.0 Δ%
